≈ marks a conversion by molar mass, not a printed value. Like-named read-outs stand apart in the source and are kept apart here.

Data set [1] can be described thus: Kinetic solubility in PBS by LC-MS/MS. Format: physicochemical. The procedure:
The kinetic solubility was determined using LC–MS/MS analysis in PBS at pH 7.4. Briefly, a 10 mM 100% DMSO solution of the compound was diluted 50-fold either in PBS at pH 7.4 (in triplicate) or in DMSO in polypropylene tubes (n = 3 for PBS and n = 6 for DMSO). The tubes were gently shaken for 24 h at 21 °C. Then, the three PBS tubes and three of the six DMSO tubes were centrifuged for 5 min at 4000 rpm and filtered over 0.45 μm filters (Millex-LH Millipore). Then, 40 μL of each solution was diluted in 160 μL of MeCN and 40 µL of Milli-Q water and transferred to matrix tubes for the LC–MS/MS analysis. The solubility was determined according to the following formula: Solubility (μM) = (AUC (filtered PBS)/AUC (not filtered DMSO)) × 200. The test was validated if (AUC (not filtered DMSO) − AUC (filtered DMSO))/AUC (not filtered DMSO) ≤ 10%.

A short description of data set [2]: Cytotoxicity by live imaging (Hoechst 33342 / propidium iodide). The class given is cell-based. Conditions: mouse. The procedure:
(§1) The cytotoxicity of the compounds to BALB/3T3 cells was determined using live imaging following both Hoechst 33342 and propidium iodide staining. Briefly, BALB/3T3 cells were seeded in a 384-well plate and 24 h later, the compounds were added (0, 12.5, 25, 50, and 100 µM) to the culture medium, as well as Hoechst 33342 and propidium iodide (PI). Then, 24 h and 48 h after the compounds were added, live imaging was performed using an In Cell Analyzer 6000 (STP GE Healthcare, Glascow, UK). The cytotoxicity was defined based on the ratio of the population of dead or dying cells (propidium iodide staining) to the total cell population (Hoechst staining), as determined using Columbus software 2.9.1 (PerkinElmer Informatics, WA, USA). The compounds were tested in triplicate. Carfilzomib (500, 250, 140, and 60 nM) was used as the positive control in this assay.

The subject of data set [3] is Staphylococcus aureus (SH1000). The data set is described as follows: microbe, parasite or virus in culture. Format: cell-based. To be noted: 5 h incubation, resazurin readout, tested 300 to 2.3 µM, read-out: MIC90 S. aureus (REMA). For orientation: Alamar Blue is a resazurin reagent that responds to reducing activity.
Data set [4] has as its system M. tuberculosis H37Rv expressing GFP (H37Rv::pJKD6). The data set can be described thus: microbe, parasite or virus in culture. The class given is cell-based, Mycobacterium tuberculosis. To be noted: for MIC: Mycobacterium tuberculosis, H37RV, 168 h, read-out: MIC98 M. tuberculosis (GFP).
For data set [5], the system named is M. tuberculosis H37Rv. The data set can be described thus: microbe, parasite or virus in culture. Format: cell-based, Mycobacterium tuberculosis. Conditions: 7 days incubation, resazurin readout, tested 300 to 2.3 µM, read-out: MIC90 M. tuberculosis (REMA).
Data set [6] has as its system BALB/3T3 cells. The data set can be described thus: Cytotoxicity by live imaging (Hoechst 33342 / propidium iodide). The class given is cell-based. Conditions: BALB/3T3 cells; 0, 12.5, 25, 50, 100 µM; imaging at 24 h and 48 h; read-out: Cytotoxicity Balb3T3 CC50. The procedure: as §1
Data set [7] concerns M. tuberculosis strains. Further details: method as in PMID 9747541. To be noted: cited from earlier work.
[8] abbreviates: 21 °C, pH 7.4, aqueous buffer, kinetic from dmso stock.
Setting [9] is: Mycobacterium tuberculosis, H37RV, 168 h.

As a reminder, the solubility is the dissolved amount per volume that the medium holds. As a reminder, the CC50 is the concentration that lowers cell viability or growth by half. `C=CCOC(=O)N(O)[C@@H]1CC[C@@]2(C)O[C@H]2[C@H]2OC(=O)C(=C)[C@@H]2CCC1=C` [Compound 13, Allyl-N-hydroxy-N-[(1S,2S,4R,7R,11S)-4-methyl-8,12-dimethylene-13-oxo-3,14-dioxatricyclo [9.3.0.02,4]tetradecan-7-yl]carbamate] showed a solubility at 24 h in data set [1] (setting [8]) of 192 µM (≈ 69.8 µg/mL). For the same molecule, the CC50 in data set [2] was over 12.5 µM. Moreover, the figures for the MIC90 in data set [3] (Staphylococcus aureus) and in data set [5] (setting [9]) were over 300 µM and 38 to 75 µM (≈ 13.8 to 27.3 µg/mL), respectively. Moreover, the MIC in data set [4] was determined as 38 µM (≈ 13.8 µg/mL).

Take `C=C1CC[C@H]2C(=C)C(=O)O[C@@H]2[C@@H]2O[C@]2(C)CC[C@H]1N(O)C(=O)OCC(Cl)(Cl)Cl` [Compound 15, 2,2,2-trichloroethyl-N-hydroxy-N-[(1S,2S,4R,7R,11S)-4-methyl-8,12-dimethylene-13-oxo-3,14-dioxatricyclo[9.3.0.02,4]tetradecan-7-yl]carbamate]: the solubility at 24 h in data set [1] (setting [8]) was found to be 184 µM (≈ 83.7 µg/mL). Besides, the cytotoxic concentration (CC50) in data set [2] was determined as 12.5 µM. Also, the MIC90 in data set [3] (Staphylococcus aureus) is over 300 µM; in data set [5] (setting [9]), 38 µM (≈ 17.3 µg/mL). Further, the MIC in data set [4] amounted to 19 µM (≈ 8.64 µg/mL).

Take “tert-butyl-N-hydroxy-N-[(1S,2S,4R,7R,11S)-4-methyl-8,12-dimethylene-13-oxo-3,14-dioxatricyclo[9.3.0.02,4]tetradecan-7-yl]carbamate [Compound 12]”: the solubility at 24 h in data set [1] (kinetic solubility, PBS pH 7.4, 24 h at 21 °C, from 10 mM DMSO solution diluted 50-fold, read-out: Solubility) was 176 µM. In addition, in data set [6], the CC50 is over 100 µM. Also, the MIC90 is listed as over 300 µM in data set [3] and 38 µM in data set [5]. The “MIC98 M. tuberculosis (GFP)” value in data set [4] was in the range of 19 to 38 µM.

`C=C1C(=O)O[C@H]2[C@H]1CC/C(C)=C/CC[C@@]1(C)O[C@@H]21` [Compound 1, Parthenolide] registered a solubility at 24 h in data set [1] (setting [8]) of 135 µM (≈ 33.5 µg/mL). In data set [2], the CC50 was over 100 µM. The values for the MIC90 in data set [3] (Staphylococcus aureus) and in data set [5] (setting [9]) were over 300 µM and 9.4 to 19 µM (≈ 2.33 to 4.72 µg/mL), respectively. Further, the MIC in data set [4] lay within 9.4 to 19 µM (≈ 2.33 to 4.72 µg/mL). Besides, the “minimum inhibitory concentration (MIC) against M. tuberculosis strains” value in data set [7] is 16 µg/mL (≈ 64.4 µM).

Take `C=C1CC[C@H]2C(=C)C(=O)O[C@@H]2[C@@H]2O[C@]2(C)CC[C@H]1N(O)C(=O)Oc1ccc(F)cc1` [Compound 16, (4-fluorophenyl)-N-hydroxy-N-[(1S,2S,4R,7R,11S)-4-methyl-8,12-dimethylene-13-oxo-3,14-dioxatricyclo[9.3.0.02,4]tetradecan-7-yl]carbamate]: the solubility at 24 h in data set [1] (aqueous buffer, kinetic from dmso stock, kinetic solubility, PBS pH 7.4, 24 h at 21 °C, from 10 mM DMSO solution diluted 50-fold, read-out: Solubility) was found to be 182 µM (≈ 76 µg/mL). Further, in data set [2] (BALB/3T3 cells, 0, 12.5, 25, 50, 100 µM, imaging at 24 h and 48 h, read-out: Cytotoxicity Balb3T3 CC50), the CC50 amounted to 25 µM. Further, the MIC90 in data set [3] (Staphylococcus aureus) was over 300 µM; in data set [5] (setting [9]), 75 µM (≈ 31.3 µg/mL). Besides, in data set [4], the MIC lay in the range of 38 to 75 µM (≈ 15.9 to 31.3 µg/mL).

In turn, `C=C1CC[C@H]2C(=C)C(=O)O[C@@H]2[C@@H]2O[C@]2(C)CC[C@H]1N(O)C(=O)OCc1ccccc1` [Compound 14, Benzyl-N-hydroxy-N-[(1S,2S,4R,7R,11S)-4-methyl-8,12-dimethylene-13-oxo-3,14-dioxatricyclo[9.3.0.02,4]tetradecan-7-yl]carbamate] came in with a solubility at 24 h in data set [1] (setting [8]) of 191 µM (≈ 79 µg/mL). The cytotoxic concentration (CC50) in data set [2] was over 12.5 µM. Further, the MIC90 in data set [3] (Staphylococcus aureus) is over 300 µM; in data set [5] (setting [9]), 75 µM (≈ 31 µg/mL). Moreover, the MIC in data set [4] turned out to be 38 µM (≈ 15.7 µg/mL).

These data come from PMC10744032, “Regioselective and Stereoselective Synthesis of Parthenolide Analogs by Acyl Nitroso-Ene Reaction and Their Biological Evaluation against Mycobacterium tuberculosis” (International Journal of Molecular Sciences, 2023).
